Reference: PubChem BioAssay (NCI)
“And” between values parts separate entries of the source, which are not always exact repeats. Equal entries are not always repeated.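 Briefly, cells in 96-well plates were exposed to five compound concentrations for 48 h, and endpoints were estimated by linear interpolation. GI50 is the concentration that inhibits growth by half. TGI denotes the concentration required for complete inhibition of growth.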

Tests used:
Assay in all cases: NCI-60 cell line screen, 48 h
CAKI-1 renal = tested on: CAKI-1 renal
DU-145 prostate = tested on: DU-145 prostate
IGROV1 ovarian = tested on: IGROV1 ovarian
LOX IMVI melanoma = tested on: LOX IMVI melanoma
NCI/ADR-RES ovarian = tested on: NCI/ADR-RES ovarian
OVCAR-3 ovarian = tested on: OVCAR-3 ovarian
OVCAR-5 ovarian = tested on: OVCAR-5 ovarian
PC-3 prostate = tested on: PC-3 prostate
SW-620 colon = tested on: SW-620 colon
HCC-2998 colon = tested on: HCC-2998 colon

SMILES | GI50 (CAKI-1 renal) | TGI (CAKI-1 renal) | GI50 (DU-145 prostate) | TGI (DU-145 prostate) | GI50 (IGROV1 ovarian) | TGI (IGROV1 ovarian) | GI50 (LOX IMVI melanoma) | TGI (LOX IMVI melanoma) | GI50 (NCI/ADR-RES ovarian) | TGI (NCI/ADR-RES ovarian) | GI50 (OVCAR-3 ovarian) | TGI (OVCAR-3 ovarian) | GI50 (OVCAR-5 ovarian) | TGI (OVCAR-5 ovarian) | GI50 (PC-3 prostate) | TGI (PC-3 prostate) | GI50 (SW-620 colon) | TGI (SW-620 colon) | TGI (HCC-2998 colon) | GI50 (HCC-2998 colon)
Oc1ccc2oc3ncc(Cl)c(-c4ccccc4)c3c2c1 | > 100 µM | > 100 µM | > 100 µM | > 100 µM | > 100 µM | > 100 µM | > 100 µM | > 100 µM | > 100 µM | > 100 µM | > 100 µM | > 100 µM | > 100 µM | > 100 µM | > 100 µM | > 100 µM | > 100 µM | > 100 µM |  | 
O=C(c1cc(O)ccc1O)c1ccccc1C(Cl)(Cl)Cl |  | > 100 µM |  |  |  | > 100 µM |  |  |  |  |  | > 100 µM |  | > 100 µM |  |  |  | > 100 µM | > 100 µM | 
O=C(CC(=O)N1N=C(c2ccccc2)C(N=Nc2ccc(C(=O)O)cc2)C1=O)Nc1ccc(F)cc1 (stereo not given) |  | > 100 µM |  |  |  | 80.5 µM |  | > 100 µM |  |  |  | 56.2 µM |  | > 100 µM |  |  |  | > 100 µM |  | 
Cn1c2c([N+](=O)[O-])[se]nc2c(=O)n1-c1ccc([N+](=O)[O-])cc1 |  | 4.03 µM |  |  |  | 2.59 µM |  | 6.88 µM |  |  |  | 3.12 µM |  | 4.44 µM |  |  |  | 1.48 µM | 3.62 µM | 
NCCCCCS(=O)(=O)O |  |  |  |  |  | > 100 µM |  | > 100 µM |  |  |  | > 100 µM |  | > 100 µM |  |  |  | > 100 µM | > 100 µM | 
CC#C[C@@]1(O)CCCC[C@@H]1O |  |  |  |  |  | > 100 µM |  | > 100 µM |  |  |  | > 100 µM |  |  |  |  |  | > 100 µM | > 100 µM | 
OCC(O)C(O)c1nn(-c2ccccc2)c2nc3cc(Cl)c(Cl)cc3nc12 (stereo not given) |  | 41.5 µM |  |  |  | 90.7 µM |  | 58.1 µM |  |  |  | 92.1 µM |  | 58.4 µM |  |  |  | > 100 µM | 86.5 µM | 
COC(=O)C1=C(OC)c2cc3c(cc2C(c2cc(OC)c(OC)c(OC)c2)C1C(=O)OC)OCO3 (stereo not given) |  | > 100 µM |  |  |  | > 100 µM |  | > 100 µM |  |  |  | > 100 µM |  | > 100 µM |  |  |  | > 100 µM | > 100 µM | 
Cc1c[nH]c2c1C13CC1CN(C(=O)c1cc4cc(NC(=O)c5cc6ccccc6o5)ccc4[nH]1)C3=CC2=O (stereo not given) | > 1.17 ng/mL | < 0.001 µM |  |  | > 1.17 ng/mL | 13.5 ng/mL | > 1.17 ng/mL | < 0.001 µM | > 1.17 ng/mL |  | > 1.17 ng/mL |  | > 1.17 ng/mL | < 0.001 µM |  |  | > 1.17 ng/mL | 1.07 nM and 0.00324 µg/mL | < 0.001 µM | > 1.17 ng/mL
c1ccc2c(CNCCCCCCNCc3cccc4ccccc34)cccc2c1 |  | 20.7 µM |  |  |  | 30.7 µM |  | 3.5 µM |  |  |  | 30.6 µM |  | 29.3 µM |  |  |  | 14.1 µM |  | 
O=C1C2c3[nH]c4ccccc4c3[C@@H]3CCCCCCCCCCC3C2C(=O)N1c1ccccc1 (stereo not given in full) |  |  |  |  |  | 43.6 µM |  | 43.3 µM |  |  |  | 33 µM |  | > 100 µM |  |  |  | 35.5 µM | > 100 µM | 
CC1=NNC(=NCCN(C)C)C/C1=C/c1ccccc1Cl |  | > 100 µM |  |  |  | > 100 µM |  | > 100 µM |  |  |  | > 100 µM |  | > 100 µM |  |  |  | > 100 µM | > 100 µM | 
CCOC(=O)c1sc(-c2ccc(OS(=O)(=O)c3cccs3)c(C=O)c2)nc1C | 1.31 µM | 3.94 µM | 2.43 µM | 6.78 µM | 1.29 µM | 3.41 µM | 1.77 µM | 3.33 µM | 1.8 µM | 6.17 µM |  |  |  |  | 1.26 µM | 4.81 µM |  |  |  | 
Nc1nc2c(ncn2C2OC(CO)C(O)C2N)c(=O)[nH]1 (stereo not given) |  | > 100 µM |  |  |  | > 100 µM |  | > 100 µM |  |  |  | > 100 µM |  | > 100 µM |  |  |  | > 100 µM | > 100 µM | 
S=c1nc(-c2ccccc2)oc(=NC2CCCCC2)n1C1CCCCC1 | 1.99 µM | 6.38 µM | 3.26 µM | 10.3 µM | 3 µM | 8.13 µM | 4.89 µM | 20.8 µM | 5.01 µM | 23.4 µM | 3.54 µM | 11.3 µM | 8.54 µM | 30.3 µM |  |  | 3.78 µM | 14.6 µM | 13.7 µM | 3.79 µM
COc1ccc(SC2c3cc(OC)c(OC)cc3Oc3nc(N)c(C#N)c(N)c32)cc1 (stereo not given) |  |  | 1.73 µM | 3.11 µM | 0.762 µM | 2.37 µM | 0.585 µM | 1.86 µM |  |  | 1.06 µM | 2.31 µM | 1.75 µM | 3.39 µM | 1.16 µM | 2.49 µM | 1.24 µM | 3.2 µM | 3.12 µM | 1.72 µM
CC(=O)OCC1OC(OC2C(COC(C)=O)OC(OCCC[S-])C(OC(C)=O)C2OC(C)=O)C(OC(C)=O)C(OC(C)=O)C1OC(C)=O.[Au+].c1ccc(CN2[CH-]N(Cc3ccccc3)C(c3ccccc3)=C2c2ccccc2)cc1 (stereo not given) |  |  | 4.5 µM | 17 µM | 3.06 µM | 16 µM | 3.42 µM | 13.6 µM | 19.5 µM | > 100 µM | 2.62 µM | 8.48 µM | 5.67 µM | 27 µM | 3.28 µM | 15 µM | 3.68 µM | 13.8 µM | 15.4 µM | 3.49 µM
N#Cc1cccc(NC(=O)c2ccc(C(=O)O)c(C(=O)c3ccc(C(=O)O)c(C(=O)Nc4cccc(C#N)c4)c3)c2)c1 |  | > 100 µM |  |  |  | > 100 µM |  | > 100 µM |  |  |  | > 100 µM |  | > 100 µM |  |  |  | > 100 µM |  | 
Nc1ccc(-c2nc3ccc4[nH]ncc4c3c3c2CCCC3)cc1F | 0.323 µM | 3.64 µM | 1.46 µM | 20.2 µM | 0.407 µM | 11.2 µM | 2 µM | 7.8 µM | 1.86 µM | 16.6 µM | 1.89 µM | 18.5 µM | 2.42 µM | 23 µM |  |  | 0.907 µM | 7.52 µM | 12.3 µM | 3.04 µM
